Counter-ions that a name gives are not always drawn.
Target: T1, human androgen receptor (Homo sapiens, UniProt P10275)
T1 construct: expressed in transfected cells; host or cells: HEK293 and LAPC4 stably expressing C-AR-Y; HEK293 transiently transfected with native AR
T1 sequence (P10275 1-920): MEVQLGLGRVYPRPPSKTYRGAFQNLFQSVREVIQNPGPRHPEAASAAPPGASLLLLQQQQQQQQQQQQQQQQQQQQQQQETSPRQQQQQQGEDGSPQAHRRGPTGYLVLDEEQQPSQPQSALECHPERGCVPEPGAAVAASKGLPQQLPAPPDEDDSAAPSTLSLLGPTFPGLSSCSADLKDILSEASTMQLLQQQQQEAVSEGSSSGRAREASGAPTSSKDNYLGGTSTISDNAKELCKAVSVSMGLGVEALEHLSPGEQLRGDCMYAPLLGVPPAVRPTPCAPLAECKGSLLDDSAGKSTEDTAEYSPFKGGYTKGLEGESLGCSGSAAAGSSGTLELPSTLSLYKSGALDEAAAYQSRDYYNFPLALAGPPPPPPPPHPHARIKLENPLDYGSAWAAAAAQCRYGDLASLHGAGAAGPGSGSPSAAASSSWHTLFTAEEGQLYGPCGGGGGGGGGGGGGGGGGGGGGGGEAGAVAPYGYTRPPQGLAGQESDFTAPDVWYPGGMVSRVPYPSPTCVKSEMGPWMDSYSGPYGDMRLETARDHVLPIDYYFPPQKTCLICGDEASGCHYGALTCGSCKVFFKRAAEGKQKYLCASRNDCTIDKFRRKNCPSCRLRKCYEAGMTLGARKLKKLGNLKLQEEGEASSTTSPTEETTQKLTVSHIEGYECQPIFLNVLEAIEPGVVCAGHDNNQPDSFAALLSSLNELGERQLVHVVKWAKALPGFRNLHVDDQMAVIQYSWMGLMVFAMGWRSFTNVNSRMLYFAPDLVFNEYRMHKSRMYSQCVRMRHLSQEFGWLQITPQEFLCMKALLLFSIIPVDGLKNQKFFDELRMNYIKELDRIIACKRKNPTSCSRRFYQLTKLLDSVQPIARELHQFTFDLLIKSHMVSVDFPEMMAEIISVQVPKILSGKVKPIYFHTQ
Assay: Screen of 1040 FDA-approved drugs and natural products for AR antagonists (MMTV-luciferase transcription assay and C-AR-Y FRET conformation assays)
Type: cell-based
Settings: test compounds at 10 μM, 10 nM DHT, 24 hours; validated by dose-response
Experimental: A library assembled by the NINDS was screened. The library consisted of 1040 FDA-approved drugs and natural products. A basic strategy to select and compare compounds from each of the primary screens was established (FIG. 1).
The transcription assay was conducted by transfecting 10 cm plates of HEK293 cells with plasmids encoding MMTV-luciferase, SV40-renilla luciferase, and native AR. […] FRET is fluorescence resonance energy transfer between cyan and yellow fluorescent protein derivatives (CFP, YFP) that are fused to the amino and carboxyl termini of the human androgen receptor. When ligand activates the receptor, a conformational change takes place that brings the CFP and YFP into close proximity, thereby allowing FRET to occur. This spectroscopic change is detected using a fluorescence plate reader.
For the transcription assay, transfected cells were pooled before being plated into 96-well dishes with the test compounds at 10 μM. […] Cell and compound transfers were accomplished with a liquid handling robot. Cells were cultured for 24 hours in the presence of 10 nM DHT and the test compounds. After 24 hours, cells were either lysed by freeze-thaw (transcription assay), or fixed in 4% paraformaldehyde for reading on the FPR (FRET assays). Each compound was tested in duplicate in the initial screen.
The compounds were sorted on the basis of anti-androgen effects. […] This eliminated situations in which one test gave a strong response, and the replicate had none. […] For the FRET assays, toxic compounds were easily detected because of their effect on raw CFP and YFP signal, and compounds that reduced this signal below two standard deviations were eliminated.
The top 50 compounds identified in each primary assay were then tested in the other two assays.

For `Cc1nccc2c1[nH]c1cc(O)ccc12` [HH, harmol hydrochloride], the “Anti-androgen activity in screen” value was “previously unrecognized anti-androgen activity”.

Source: patent publication US8580773B2, “Small-molecule inhibitors of the androgen receptor” (The Regents of the University of California, priority 2008, dated 2013)
